Read-outs that look alike come from different tables or passages of the source.
What was measured:
[1] = molecular target: T1, E. coli ATP synthase (purified F1 or membrane bound F1Fo) (Escherichia coli, UniProt P0ABA6+P0ABB0+P0ABB4); assay: biochemical; format: biochemical
[2] = molecular target: T1, E. coli ATP synthase (purified F1 or membrane bound F1Fo); details: maximal inhibition; cited from earlier work
[3] = test system: wild-type E. coli strain pBWU13.4/DK8; format: cell-based, Escherichia coli
[4] = left over ATPase activity at maximal inhibition
[5] = OD595 after ~20 hours growth at 37 °C, control 100, null 45
[6] = left over ATPase activity at maximal inhibition, purified F1 or membranes
[7] = purified F1 or membranes, preincubated 60 min at 23°C, varied concentrations

T1 sequence (P0ABA4 whole entry): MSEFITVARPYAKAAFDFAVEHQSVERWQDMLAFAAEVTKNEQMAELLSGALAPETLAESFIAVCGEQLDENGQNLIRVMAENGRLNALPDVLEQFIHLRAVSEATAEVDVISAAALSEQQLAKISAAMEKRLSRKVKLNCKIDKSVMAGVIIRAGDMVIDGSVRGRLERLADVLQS
T1 sequence (P0ABB4 2-460): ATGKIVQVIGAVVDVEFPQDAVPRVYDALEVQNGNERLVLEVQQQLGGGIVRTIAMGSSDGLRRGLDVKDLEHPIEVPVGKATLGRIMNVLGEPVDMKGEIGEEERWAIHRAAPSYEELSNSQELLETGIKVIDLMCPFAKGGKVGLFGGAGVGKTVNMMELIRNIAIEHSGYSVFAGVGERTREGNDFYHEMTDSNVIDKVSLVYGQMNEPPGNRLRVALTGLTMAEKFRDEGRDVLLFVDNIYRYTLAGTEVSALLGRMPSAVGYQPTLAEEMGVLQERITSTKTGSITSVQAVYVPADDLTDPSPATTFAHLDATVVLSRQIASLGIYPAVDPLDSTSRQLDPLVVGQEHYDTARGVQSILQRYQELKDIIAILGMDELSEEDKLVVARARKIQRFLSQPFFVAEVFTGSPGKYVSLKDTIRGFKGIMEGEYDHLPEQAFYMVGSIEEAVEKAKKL
T1 sequence (P0ABA6 whole entry): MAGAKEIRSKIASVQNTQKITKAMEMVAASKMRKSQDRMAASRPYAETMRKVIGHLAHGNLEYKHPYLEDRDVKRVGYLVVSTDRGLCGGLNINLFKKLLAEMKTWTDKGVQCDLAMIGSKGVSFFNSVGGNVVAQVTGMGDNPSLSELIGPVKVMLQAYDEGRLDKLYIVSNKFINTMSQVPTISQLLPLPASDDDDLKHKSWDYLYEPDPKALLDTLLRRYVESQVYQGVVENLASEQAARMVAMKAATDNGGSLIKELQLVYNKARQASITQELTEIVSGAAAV
T1 sequence (P0A6E6 2-139, further chain): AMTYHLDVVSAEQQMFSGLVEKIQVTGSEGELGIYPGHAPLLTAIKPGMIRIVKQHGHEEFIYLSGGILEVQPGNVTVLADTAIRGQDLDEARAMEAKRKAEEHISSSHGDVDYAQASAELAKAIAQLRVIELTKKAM
T1 sequence (P0ABB0 whole entry): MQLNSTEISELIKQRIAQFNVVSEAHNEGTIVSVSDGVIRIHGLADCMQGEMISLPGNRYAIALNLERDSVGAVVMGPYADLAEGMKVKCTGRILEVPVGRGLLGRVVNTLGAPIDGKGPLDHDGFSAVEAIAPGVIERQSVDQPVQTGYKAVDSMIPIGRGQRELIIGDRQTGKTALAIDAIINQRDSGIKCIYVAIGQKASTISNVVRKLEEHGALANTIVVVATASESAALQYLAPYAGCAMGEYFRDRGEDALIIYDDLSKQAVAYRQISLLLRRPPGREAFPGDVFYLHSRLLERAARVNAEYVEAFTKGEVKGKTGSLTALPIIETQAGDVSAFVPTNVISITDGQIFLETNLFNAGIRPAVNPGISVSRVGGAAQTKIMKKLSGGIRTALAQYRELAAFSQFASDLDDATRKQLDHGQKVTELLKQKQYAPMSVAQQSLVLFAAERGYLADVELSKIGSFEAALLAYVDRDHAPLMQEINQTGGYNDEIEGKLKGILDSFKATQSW

Row | Compound | IC50 [1] | Residual ATPase Activity (%) [1, 4] | Growth yield in limiting glucose (%) [3, 5] | residual activity [1, 6] | maximum amount of inhibition of ATPase activity [1, 7] | further results
1 | O=[N+]([O-])c1ccc(N=Cc2ccccc2O)c(O)c1 [PC13, 2-[[(2-Hydroxy-4-nitrophenyl)imino]methyl]phenol] | ~5 µM | 0% | – | – | – | –
2 | Oc1ccc(/C=C/c2cc(O)cc(O)c2)cc1 [resveratrol] | – | – | – | – | – | inhibition of E. coli ATP synthase [2]: ~ 40%
3 | Oc1ccc(O)cc1 [PC02, Hydroquinone] | ~20 µM | – | – | – | – | Residual ATPase Activity (%) [1]: 20%; maximum amount of inhibition of ATPase activity [1]: ~ 80%; Growth yield in limiting glucose (%) [3]: 55%
4 | Oc1cccc(N=Cc2ccccc2O)c1 [PC06, 2-[[(3-Hydroxyphenyl)imino]methyl]phenol] | ~5.25 µM | 15% | 51% | – | – | –
5 | Oc1ccccc1O [PC04, Catechol] | – | 60% | 57% | ~ 60% | ~ 40% | –
6 | 1,8,9-Anthracentriol [PC17] | – | 70% | 69% | – | ~ 30% | –
7 | Oc1ccc(N=Cc2ccccc2O)cc1 [PC05, 2-[[(4-hydroxyphenyl)Imino]methyl]phenol] | ~5 µM | 0% | 42% | – | – | –
8 | Oc1cccc(C=Nc2ccccc2O)c1 [PC07, 3-[[(2-Hydroxyphenyl)imino]methyl]phenol] | ~9 µM | 15% | – | – | – | –
9 | Oc1ccc(C=Nc2ccc(O)cc2)cc1 [PC11, 4-[[(4-Hydroxyphenyl)imino]methyl]phenol] | – | 80% | – | ~ 80% | – | –
10 | Oc1ccccc1C=Nc1ccccc1O [PC09, 2-[[(2-Hydroxyphenyl)imino]methyl]phenol] | ~7 µM | 5% | – | – | – | –
11 | Oc1cccc(O)c1 [PC03, Resorcinol] | – | 80% | 79% | ~ 80% | ~ 20% | –
12 | Cc1cc(O)c(C(C)C)cc1O [PC01, Dihydrothymoquinone] | – | 60% | 66% | ~ 60% | ~ 40% | –
13 | O=[N+]([O-])c1cc(O)ccc1N=Cc1ccccc1O [PC12, 2-[[(4-Hydroxy-2-nitrophenyl)imino]methyl]phenol] | ~6 µM | 0% | – | – | – | –
14 | Oc1cccc(C=Nc2cccc(O)c2)c1 [PC10, 3-[[(3-Hydroxyphenyl)imino]methyl]phenol] | ~2.25 µM | 0% | – | – | – | –
15 | Oc1ccc(C=Nc2cccc(O)c2)cc1 [PC08, 4-[[(3-Hydroxyphenyl)imino]methyl]phenol] | ~9 µM | 0% | – | – | – | –
16 | O=C1c2cccc(O)c2C(=O)c2c(O)cccc21 [PC16, 1,8-Dihydroxy-9,10-anthraquinone] | – | 78% | 80% | ~ 78% | ~ 22% | –
17 | O=[N+]([O-])c1ccc(OP(=O)(O)Oc2ccc([N+](=O)[O-])cc2)cc1 [PC15, Bis(4-nitrophenyl)phosphate] | – | 60% | 63% | – | ~ 40% | –
18 | O=[N+]([O-])c1ccc(OP(=O)(Oc2ccc([N+](=O)[O-])cc2)Oc2ccc([N+](=O)[O-])cc2)cc1 [PC14, Tris(4-nitrophenyl)phosphate] | – | 55% | 57% | ~ 55% | ~ 45% | –

Reference: paper PMC4303583 (International journal of biological macromolecules, 2012)
